According to article PMC7551609 (Viruses, 2020):
Entries after “also recorded” stand apart in the source; their conditions may differ.

Key:
ZIKV PRVABC59 strain = experiment: Viral inhibition assay, post-treatment, new World strain, Vero cells; format: cell-based, Zika virus; settings: for EC50 / MIC: Zika virus; for EC50: new World ZIKV PRVABC59, Vero cells, post-treatment, 48 h; for MIC: new World ZIKV PRVABC59, read-out: PRVABC59 MIC (maximum effective concentration)
ZIKV Paraiba/2015 [1] = experiment: Growth kinetics inhibition assay (infectious viral progeny), Vero cells; format: cell-based, Zika virus
[2] = XTT cell proliferation assay in Vero cells; format: cell-based, African green monkey; settings: African green monkey, non-infected Vero cells, 36 h post-treatment
ZIKV Paraiba/2015 [3] = experiment: Viral inhibition assay, pre-treatment (prophylactic), Vero cells; format: cell-based, Zika virus; settings: for MIC / EC50: Zika virus; for MIC: read-out: Pre-treatment MIC (maximum effective concentration); for EC50: ZIKV Paraiba/2015, Vero cells, pre-treatment 12 h before infection
[4] = XTT cell proliferation in A549 cells; format: cell-based, human; settings: human, highest concentration used 50.00 µM, sentence also cites [17]
[5] = MTT cell viability in A549 cells; format: cell-based, human; settings: human, highest concentration used 50.00 µM, sentence also cites [17]
ZIKV Paraiba/2015 [6] = experiment: Viral inhibition assay, post-infection treatment, Vero cells; format: cell-based, Zika virus; settings: for EC50: 36 h, ZIKV Paraiba/2015, Vero cells, post-infection treatment; for MIC: read-out: Post-treatment MIC (maximum effective concentration); for inhibitor category based on SI-MTT and SI-XTT / inhibitor category based on SI-MTT / inhibitor category based on SI-XTT: post-treatment, Paraiba/2015, Vero
ZIKV MR-766 strain = experiment: Viral inhibition assay, post-treatment, old World strain, Vero cells; format: cell-based, Zika virus; settings: for inhibitor category based on SI-MTT and SI-XTT: ZIKV MR-766, Vero; for EC50 / MIC: Zika virus; for EC50: old World ZIKV MR-766, Vero cells, post-treatment; for MIC: old World ZIKV MR-766 strain, read-out: MR766 MIC (maximum effective concentration)
ZIKV Paraiba/2015 [7] = experiment: Viral inhibition assay, post-treatment, human A549 cells; format: cell-based, Zika virus; settings: for inhibitor category based on SI-MTT and SI-XTT: Paraiba/2015, A549 cells; for MIC / EC50: Zika virus; for MIC: in Homo sapiens, read-out: A549 cells MIC (maximum effective concentration); for EC50: ZIKV Paraiba/2015, A549 cells, post-treatment, 36 h
Caspase 3 and 7 = experiment: Apoptosis assay (Caspase Glo 3/7) in ZIKV-infected Vero cells; settings: 0, 0.1, 1, 10 EC50; 24, 48, 72 h post-treatment
ZIKV Paraiba/2015 [8] = experiment: Viral inhibition assay, co-treatment, Vero cells; format: cell-based, Zika virus; settings: for Co-treatment MIC (maximum effective concentration): Vero cells, ZIKV Paraiba/2015, co-treatment; for inhibitor category based on SI-MTT and SI-XTT / inhibitor category based on SI-MTT / inhibitor category based on SI-XTT: co-treatment, Paraiba/2015, Vero
[9] = MTT cell viability assay in Vero cells; format: cell-based, African green monkey; settings: African green monkey, non-infected Vero cells, 36 h post-treatment
[10] = system: ZIKV cocktail of MR-766, FSS13025, and MEX-2-81; settings: JEG-3 cells, ZIKV cocktail of MR-766, FSS13025, MEX-2-81; cited from earlier work
[11] = pre-treatment, Paraiba/2015, Vero
[12] = 0.1, 1, 10 EC50, all time points (24, 48, 72 h post-treatment), MOI 0.1

Row | Compound | EC50 (ZIKV PRVABC59 strain) | MIC (ZIKV PRVABC59 strain) | CC50 at 36 h ([2]; confluent monolayers) | MIC (ZIKV Paraiba/2015 [3]) | EC50 (ZIKV Paraiba/2015 [3]) | inhibitor category based on SI-MTT (ZIKV Paraiba/2015 [3]; [11]) | inhibitor category based on SI-XTT (ZIKV Paraiba/2015 [3]; [11]) | CC50 [4] | CC50 [5] | EC50 (ZIKV Paraiba/2015 [6]; Zika virus, Vero) | MIC (ZIKV Paraiba/2015 [6]; Zika virus) | inhibitor category based on SI-MTT and SI-XTT (ZIKV Paraiba/2015 [6]) | inhibitor category based on SI-MTT and SI-XTT (ZIKV MR-766 strain) | EC50 (ZIKV MR-766 strain) | MIC (ZIKV MR-766 strain) | inhibitor category based on SI-MTT and SI-XTT (ZIKV Paraiba/2015 [7]) | MIC (ZIKV Paraiba/2015 [7]) | EC50 (ZIKV Paraiba/2015 [7]) | Co-treatment MIC (maximum effective concentration) (ZIKV Paraiba/2015 [8]) | inhibitor category based on SI-MTT and SI-XTT (ZIKV Paraiba/2015 [8]) | further results
1 | O=C(O)C1=CC(=C(c2ccc(O)c(C(=O)O)c2)c2ccc(O)c(C(=O)O)c2)C=CC1=O [ATA, Aurintricarboxylic acid] | 4740 nM | < 33.3 µM | > 1.35 mM | > 100 µM | 9.86 µM | potent | moderate | > 50 µM | > 50 µM | 21 µM | > 100 µM | moderate to weak | weak | 8080 nM | < 33.3 µM | weak | < 100 µM | 6670 nM | < 33.30 µM | potent | inhibitor category based on SI-MTT (ZIKV PRVABC59 strain; ZIKV PRVABC59, Vero): moderate; inhibitor category based on SI-XTT (ZIKV PRVABC59 strain; ZIKV PRVABC59, Vero): weak; effect on production of infectious viral progeny (viral titers) (ZIKV Paraiba/2015 [1]; 10 EC50): complete inhibition; caspase 3/7 activation in ZIKV-infected cells (Caspase 3 and 7): dose-dependent effect; CC50 at 36 h ([9]; confluent monolayers): > 1350 µM
2 | CC[C@H](CC#N)OC(=O)N[C@@H](C)c1cccc(NC(=O)Nc2ccc(-c3cnco3)c(OC)c2)c1 [AVN-944] | 380 nM | < 1.23 µM | > 1.35 mM | < 100 µM | 11.1 µM | Potent | moderate | > 50 µM | > 50 µM | 0.84 µM | < 11.1 µM | most potent; also recorded: potent | most potent; also recorded: potent | 330 nM | < 1.23 µM | Potent | < 0.41 µM | 50 nM | > 100.00 µM | moderate | inhibitor category based on SI-MTT and SI-XTT (ZIKV PRVABC59 strain; ZIKV PRVABC59, Vero): potent; effect on production of infectious viral progeny (viral titers) (ZIKV Paraiba/2015 [1]; [12]): dose-dependent inhibitory effect; EC50 (ZIKV Paraiba/2015 [6]): 0.98 µM; CC50 at 36 h ([9]; confluent monolayers): 273 µM
3 | CCCCCC[C@H]1C(=O)O[C@H](C)[C@H](NC(=O)c2cccc(NC=O)c2O)C(=O)O[C@@H](C)[C@@H]1OC(=O)CC(C)C [Antimycin A] | 7320 nM | < 33.3 µM |  | < 100 µM | 8.95 µM | moderate | moderate | > 50 µM | > 50 µM | 1.29 µM | < 100 µM | moderate to weak | most potent; also recorded: potent | 30 nM | < 33.3 µM | weak | < 11.1 µM | 1710 nM | > 100.00 µM |  | inhibitor category based on SI-MTT and SI-XTT (ZIKV PRVABC59 strain; ZIKV PRVABC59, Vero): weak; effect on production of infectious viral progeny (viral titers) (ZIKV Paraiba/2015 [1]; 72 h post-treatment): dose-dependent effect; CC50 at 36 h [2]: > 1.35 mM; inhibitor category based on SI-MTT (ZIKV Paraiba/2015 [6]): weak; inhibitor category based on SI-XTT (ZIKV Paraiba/2015 [6]): potent; inhibitor category based on SI-MTT (ZIKV Paraiba/2015 [8]): moderate; inhibitor category based on SI-XTT (ZIKV Paraiba/2015 [8]): potent; CC50 at 36 h [9]: 51.3 µM
4 | COc1c(C)c2c(c(O)c1C/C=C(\C)CCC(=O)OCCN1CCOCC1)C(=O)OC2 [Mycophenolate mofetil] | 120 nM | < 1.23 µM | > 1.35 mM | > 100 µM | 8.11 µM | Potent; also recorded: moderate | potent | > 50 µM | > 50 µM | 3.54 µM | > 100 µM | moderate to weak | most potent; also recorded: potent | 240 nM | < 1.23 µM | weak | < 11.1 µM | 830 nM | > 100.00 µM | potent | EC50 [10]: 760 nM; inhibitor category based on SI-MTT and SI-XTT (ZIKV PRVABC59 strain; ZIKV PRVABC59, Vero): potent; effect on production of infectious viral progeny (viral titers) (ZIKV Paraiba/2015 [1]; [12]): dose-dependent inhibitory effect; EC50 (ZIKV Paraiba/2015 [6]): 3.52 µM; inhibitor category based on SI-MTT (ZIKV Paraiba/2015 [8]): Potent; inhibitor category based on SI-XTT (ZIKV Paraiba/2015 [8]): potent; CC50 at 36 h ([9]; confluent monolayers): 166 µM
5 | NC(=O)c1[nH]nc([C@@H]2O[C@H](CO)[C@@H](O)[C@H]2O)c1O [Pyrazofurin] | 950 nM | < 3.7 µM | > 1.35 mM | > 100 µM | 313 µM |  | weakest | > 50 µM | > 50 µM | 5.16 µM | > 100 µM | moderate to weak | moderate | 890 nM | < 3.7 µM | moderate | < 1.23 µM | 330 nM | > 100.00 µM | weak | inhibitor category based on SI-MTT and SI-XTT (ZIKV PRVABC59 strain; ZIKV PRVABC59, Vero): moderate; effect on production of infectious viral progeny (viral titers) (ZIKV Paraiba/2015 [1]; [12]): dose-dependent inhibitory effect; inhibitor category based on SI-MTT and SI-XTT (ZIKV Paraiba/2015 [3]; [11]): weak; EC50 (ZIKV Paraiba/2015 [6]): 5.96 µM; inhibitor category based on SI-MTT (ZIKV Paraiba/2015 [6]): moderate; inhibitor category based on SI-XTT (ZIKV Paraiba/2015 [6]): weak; inhibitor category based on SI-MTT (ZIKV Paraiba/2015 [8]): weak; CC50 at 36 h ([9]; confluent monolayers): 271 µM
